Experimental data published in the supplement of paper PMC10307832.

Assays:
Test in all cases: relative viability (nuclei count vs DMSO), 5 days (fraction); higher = more cells survive
Carfilzomib + Alpelisib = compound: CC(C)C[C@H](NC(=O)[C@H](CCc1ccccc1)NC(=O)CN1CCOCC1)C(=O)N[C@@H](Cc1ccccc1)C(=O)N[C@@H](CC(C)C)C(=O)[C@@]1(C)CO1 [Carfilzomib] + Cc1nc(NC(=O)N2CCC[C@H]2C(N)=O)sc1-c1ccnc(C(C)(C)C(F)(F)F)c1 [Alpelisib] (partner 2 µM)
Summary of the method: (§1)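 For relative viability, nuclei counts in treated wells were divided by those in vehicle wells. Lung cancer cell lines had been pin-tool dosed in 1536-well plates the day after seeding and cultured for 5 days, then fixed and stained in one step (final 0.05% Triton X-100, 1% formaldehyde, 1 ug/ml Hoechst) and imaged at 4×. Doses were one drug alone or a fixed anchor-drug dose plus five library-drug doses (not always all listed) in √10 steps, and values are duplicate-plate medians.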

Crizotinib + Navitoclax = compound: C[C@@H](Oc1cc(-c2cnn(C3CCNCC3)c2)cnc1N)c1c(Cl)ccc(F)c1Cl [Crizotinib] + CC1(C)CCC(c2ccc(Cl)cc2)=C(CN2CCN(c3ccc(C(=O)NS(=O)(=O)c4ccc(N[C@H](CCN5CCOCC5)CSc5ccccc5)c(S(=O)(=O)C(F)(F)F)c4)cc3)CC2)C1 [Navitoclax] (partner 0.5 µM)
Summary of the method: as §1

Olaparib + Decitabine = compound: O=C(c1cc(Cc2n[nH]c(=O)c3ccccc23)ccc1F)N1CCN(C(=O)C2CC2)CC1 [Olaparib] + Nc1ncn([C@H]2C[C@H](O)[C@@H](CO)O2)c(=O)n1 [Decitabine] (partner 2 µM)
Summary of the method: as §1

Carfilzomib + Luminespib = compound: CC(C)C[C@H](NC(=O)[C@H](CCc1ccccc1)NC(=O)CN1CCOCC1)C(=O)N[C@@H](Cc1ccccc1)C(=O)N[C@@H](CC(C)C)C(=O)[C@@]1(C)CO1 [Carfilzomib] + CCNC(=O)c1noc(-c2cc(C(C)C)c(O)cc2O)c1-c1ccc(CN2CCOCC2)cc1 [Luminespib] (partner 0.01 µM)
Summary of the method: as §1

Cell Line | relative viability (Carfilzomib + Alpelisib; first compound 0.001 µM) | relative viability (Carfilzomib + Alpelisib; first compound 0.003162 µM) | relative viability (Carfilzomib + Alpelisib; first compound 0.01 µM) | relative viability (Carfilzomib + Alpelisib; first compound 0.03162 µM) | relative viability (Carfilzomib + Alpelisib; first compound 0.1 µM) | relative viability (Crizotinib + Navitoclax; first compound 0.01 µM) | relative viability (Crizotinib + Navitoclax; first compound 0.03162 µM) | relative viability (Crizotinib + Navitoclax; first compound 0.1 µM) | relative viability (Crizotinib + Navitoclax; first compound 0.3162 µM) | relative viability (Crizotinib + Navitoclax; first compound 1 µM) | relative viability (Olaparib + Decitabine; first compound 0.08 µM) | relative viability (Olaparib + Decitabine; first compound 0.253 µM) | relative viability (Olaparib + Decitabine; first compound 2.53 µM) | relative viability (Olaparib + Decitabine; first compound 8 µM) | relative viability (Carfilzomib + Luminespib; first compound 0.001 µM) | relative viability (Carfilzomib + Luminespib; first compound 0.003162 µM) | relative viability (Carfilzomib + Luminespib; first compound 0.01 µM) | relative viability (Carfilzomib + Luminespib; first compound 0.03162 µM) | relative viability (Carfilzomib + Luminespib; first compound 0.1 µM)
HCC-78 | 0.327 | 0.45 | 0.362 | 0.287 | 0.157 | 0.774 | 0.738 | 0.749 | 0.685 | 0.628 | 0.613 | 0.562 | 0.508 | 0.455 |  |  |  |  | 
HCC-366 | 0.402 | 0.518 | 0.413 | 0.285 | 0.0174 | 0.991 | 1.11 | 1.06 |  | 1.17 | 0.186 | 0.144 | 0.0931 | 0.113 |  |  |  |  | 
HCC-827 | 0.943 | 0.948 | 0.945 | 0.934 | 0.357 | 0.954 |  | 0.987 | 1.01 | 0.953 | 0.306 | 0.266 | 0.291 | 0.231 | 0.344 | 0.635 | 0.625 | 0.721 | 0.281
HOP-62 | 0.935 | 1.12 | 0.986 | 0.118 | 0.0839 | 0.994 | 0.996 | 0.943 |  | 0.948 | 0.18 | 0.17 | 0.234 | 0.178 | 0.986 | 0.91 | 0.849 | 0.784 | 0.0941
IA-LM | 0.747 | 0.821 | 0.633 | 0.151 | 0.0147 | 0.71 | 0.759 | 0.792 | 0.796 | 0.842 |  |  |  |  |  |  |  |  | 
LC-2-ad | 0.915 | 0.923 | 0.956 | 0.106 | 0.109 | 0.412 | 0.432 | 0.44 |  | 0.442 | 0.618 | 0.623 | 0.557 | 0.509 | 0.974 | 1.19 | 1.12 | 0.593 | 0.265
LCLC-97TM1 | 0.307 | 0.258 | 0.266 | 0.101 | 0.126 | 0.318 | 0.39 | 0.341 | 0.317 | 0.404 | 0.193 | 0.143 | 0.165 | 0.178 | 0.743 | 0.858 | 0.753 | 0.27 | 0.14
LCLC-103H | 0.972 | 1.01 | 0.99 | 0.671 | 0.195 |  |  |  |  |  | 0.626 | 0.727 | 0.674 | 0.626 | 0.849 | 0.975 | 0.943 | 1.04 | 0.176
LK-2 |  | 1.59 | 1.1 | 0.263 | 0.255 | 0.826 | 0.938 | 0.674 | 0.967 | 0.905 | 0.258 | 0.254 | 0.271 | 0.184 | 0.221 | 0.203 | 0.175 | 0.17 | 0.168
LOU-NH91 | 0.702 | 0.742 | 0.662 | 0.307 | 0.267 | 0.68 | 0.708 | 0.701 | 0.647 | 0.727 | 0.853 | 0.774 | 0.783 | 0.769 | 0.344 | 0.475 | 0.344 | 0.287 | 0.289
LU99A | 0.503 | 0.543 | 0.49 | 0.198 | 0.148 | 0.801 | 0.743 | 0.826 | 0.721 | 0.786 | 0.933 | 0.753 | 0.601 | 0.566 | 0.252 | 0.221 | 0.284 | 0.218 | 0.191
NCI-H358 | 1.21 | 1.19 | 0.85 | 0.153 | 0.13 |  |  |  |  |  | 0.148 | 0.157 | 0.23 | 0.138 | 0.295 | 0.456 | 0.378 | 0.281 | 0.118
NCI-H522 |  |  |  |  |  |  |  |  |  |  | 0.745 | 0.645 | 0.724 | 0.598 | 1.09 | 1.57 | 1.16 | 1.26 | 0.367
NCI-H650 | 1.09 | 1.3 | 1.21 | 1.09 | 0.164 |  |  |  |  |  | 0.266 | 0.293 | 0.241 | 0.281 |  | 0.866 | 0.636 | 0.746 | 0.182
NCI-H661 | 0.778 | 0.93 | 0.495 | 0.615 | 0.181 |  |  |  |  |  | 0.454 | 0.434 | 0.4 | 0.382 | 0.93 | 0.967 | 0.933 | 0.866 | 0.291
NCI-H1299 | 1.1 | 1.01 | 1.06 | 1.02 | 0.257 | 1.04 | 1.02 | 1.01 | 1.07 | 1.01 |  |  |  |  |  |  |  |  | 
NCI-H1563 | 1.04 | 0.866 | 0.877 | 0.812 | 0.569 |  |  |  |  |  |  |  |  |  | 0.538 | 0.455 | 0.512 | 0.457 | 0.466
NCI-H1623 |  |  |  |  |  |  |  |  |  |  |  |  |  |  | 0.466 | 0.527 | 0.563 | 0.59 | 0.345
NCI-H1648 |  |  |  |  |  |  |  |  |  |  | 0.431 | 0.384 |  | 0.44 |  |  |  |  | 
NCI-H1650 |  |  |  |  |  | 1.1 | 1.15 | 1.08 | 1.2 | 1.13 | 0.432 | 0.39 | 0.32 | 0.354 | 0.174 | 0.199 | 0.213 | 0.175 | 0.181
NCI-H1703 | 0.246 | 0.334 | 0.126 | 0.112 | 0.122 | 1.03 | 0.933 |  |  | 1.12 |  |  |  |  |  |  |  |  | 
NCI-H2228 | 0.662 | 0.73 | 0.49 | 0.108 | 0.156 | 1.01 | 1.2 | 0.648 | 0.996 | 0.409 |  |  |  |  | 0.145 | 0.152 | 0.161 | 0.123 | 0.144
NCI-H2342 |  |  |  |  |  |  |  |  |  |  | 0.756 | 0.606 | 0.663 | 0.619 | 0.69 | 1.01 | 0.794 | 0.798 | 0.581
SW 900 |  |  |  |  |  |  |  |  |  |  | 0.355 | 0.331 | 0.413 | 0.355 | 0.164 | 0.196 | 0.213 | 0.172 | 0.149
